Test results published in publication PMC7782168, “Synthesis, telomerase inhibitory and anticancer activity of new 2-phenyl-4H-chromone derivatives containing 1,3,4-oxadiazole moiety” (Journal of Enzyme Inhibition and Medicinal Chemistry, 2020).

Assays:
[1] = biological target: T1, telomerase (Homo sapiens, UniProt O14746); assay: Telomerase activity assay using MGC-803 cells extract; format: biochemical; conditions: mean ± SD
T1 construct: assayed for telomerase activity using MGC-803 cells extract; endogenous in cells; host or cells: MGC-803 cell extract
T1 sequence (O14746 whole entry): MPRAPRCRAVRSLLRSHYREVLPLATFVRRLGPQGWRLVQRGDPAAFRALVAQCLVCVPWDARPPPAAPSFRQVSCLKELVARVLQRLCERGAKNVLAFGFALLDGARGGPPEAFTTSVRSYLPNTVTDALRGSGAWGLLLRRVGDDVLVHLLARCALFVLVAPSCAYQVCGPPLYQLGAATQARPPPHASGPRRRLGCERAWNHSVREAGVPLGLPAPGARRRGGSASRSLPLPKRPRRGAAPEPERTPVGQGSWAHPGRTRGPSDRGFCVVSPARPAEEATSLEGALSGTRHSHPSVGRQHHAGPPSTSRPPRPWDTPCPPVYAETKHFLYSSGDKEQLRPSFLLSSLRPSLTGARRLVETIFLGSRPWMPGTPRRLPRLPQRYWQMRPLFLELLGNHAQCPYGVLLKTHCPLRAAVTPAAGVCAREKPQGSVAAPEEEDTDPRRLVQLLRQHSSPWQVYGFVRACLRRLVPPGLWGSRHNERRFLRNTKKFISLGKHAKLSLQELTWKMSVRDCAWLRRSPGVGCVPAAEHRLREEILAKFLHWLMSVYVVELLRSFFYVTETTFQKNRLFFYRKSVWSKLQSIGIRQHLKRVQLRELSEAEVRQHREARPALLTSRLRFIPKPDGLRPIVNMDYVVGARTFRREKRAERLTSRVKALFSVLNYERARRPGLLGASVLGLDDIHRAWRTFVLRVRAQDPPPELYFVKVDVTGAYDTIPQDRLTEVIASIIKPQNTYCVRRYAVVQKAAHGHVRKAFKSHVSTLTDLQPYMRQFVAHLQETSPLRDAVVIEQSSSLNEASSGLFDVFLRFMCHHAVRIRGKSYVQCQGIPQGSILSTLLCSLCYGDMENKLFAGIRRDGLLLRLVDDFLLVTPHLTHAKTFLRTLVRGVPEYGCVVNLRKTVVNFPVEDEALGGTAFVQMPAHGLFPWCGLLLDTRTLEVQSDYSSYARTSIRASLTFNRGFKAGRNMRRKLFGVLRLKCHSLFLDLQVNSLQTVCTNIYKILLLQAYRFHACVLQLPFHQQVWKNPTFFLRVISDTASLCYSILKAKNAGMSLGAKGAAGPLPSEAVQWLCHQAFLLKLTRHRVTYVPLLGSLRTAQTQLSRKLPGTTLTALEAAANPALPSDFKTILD
T1 sequence (O60832 2-514 partner limits assumed): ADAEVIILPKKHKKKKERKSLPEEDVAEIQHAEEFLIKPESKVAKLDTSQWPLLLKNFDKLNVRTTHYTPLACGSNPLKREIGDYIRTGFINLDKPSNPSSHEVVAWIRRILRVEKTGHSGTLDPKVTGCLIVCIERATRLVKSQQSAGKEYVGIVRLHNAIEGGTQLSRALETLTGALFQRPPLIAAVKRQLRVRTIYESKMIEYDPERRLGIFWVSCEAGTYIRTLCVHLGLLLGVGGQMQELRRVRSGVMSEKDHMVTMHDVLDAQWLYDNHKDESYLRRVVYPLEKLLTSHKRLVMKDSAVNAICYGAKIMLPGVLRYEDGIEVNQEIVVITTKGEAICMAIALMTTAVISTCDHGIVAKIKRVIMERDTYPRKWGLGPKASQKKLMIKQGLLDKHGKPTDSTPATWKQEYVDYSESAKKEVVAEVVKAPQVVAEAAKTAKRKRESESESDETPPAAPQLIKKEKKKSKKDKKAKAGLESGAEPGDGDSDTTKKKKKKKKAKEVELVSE
T1 sequence (Q9NPE3 whole entry partner): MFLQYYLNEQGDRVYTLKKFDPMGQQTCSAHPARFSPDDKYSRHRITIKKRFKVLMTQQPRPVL
T1 sequence (Q9NX24 whole entry partner): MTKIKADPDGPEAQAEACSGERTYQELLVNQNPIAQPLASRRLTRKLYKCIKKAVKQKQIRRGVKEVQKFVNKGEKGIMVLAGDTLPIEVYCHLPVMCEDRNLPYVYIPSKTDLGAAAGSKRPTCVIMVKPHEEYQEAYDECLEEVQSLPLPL
T1 sequence (Q9NY12 whole entry partner): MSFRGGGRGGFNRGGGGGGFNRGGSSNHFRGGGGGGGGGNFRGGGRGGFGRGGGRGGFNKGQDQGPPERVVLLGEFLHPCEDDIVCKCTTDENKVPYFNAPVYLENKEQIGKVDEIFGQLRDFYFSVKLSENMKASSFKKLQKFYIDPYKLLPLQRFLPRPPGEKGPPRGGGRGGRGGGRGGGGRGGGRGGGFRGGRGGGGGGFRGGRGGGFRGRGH

Row | melting point | IC50 [1] | SMILES
1 | 188 to 190 °C | > 60 µM | COc1cc(OC)c2c(=O)c(OCC(=O)Nc3nnc(-c4cccc(OCc5ccccc5)c4)o3)c(-c3cc(OC)c(OC)c(OC)c3)oc2c1 [A30, N-(5–(3-(benzyloxy)phenyl)-1,3,4-oxadiazol-2-yl)-2–(5,7-dimethoxy-4-oxo-2–(3,4,5-trimethoxyphenyl)-4H-chromen-3-yloxy)acetamide]
2 | 201 to 203 °C | 12.5 ± 1.88 µM | COc1cc(OC)c2c(=O)c(OCC(=O)Nc3nnc(-c4ccccc4Cl)o3)c(-c3cc(OC)c(OC)c(OC)c3)oc2c1 [A7, N-(5–(2-chlorophenyl)-1,3,4-oxadiazol-2-yl)-2–(5,7-dimethoxy-4-oxo-2–(3,4,5-trimethoxyphenyl)-4H-chromen-3-yloxy)acetamide]
3 | 254 to 256 °C | 17.2 ± 2.98 µM | COc1cc(OC)c2c(=O)c(OCC(=O)Nc3nnc(-c4ccccc4[N+](=O)[O-])o3)c(-c3ccc(OC)c(OC)c3)oc2c1 [B15, 2–(2-(3,4-dimethoxyphenyl)-5,7-dimethoxy-4-oxo-4H-chromen-3-yloxy)-N-(5–(2-nitrophenyl)-1,3,4-oxadiazol-2-yl)acetamide]
4 | 233 to 235 °C | 2.82 ± 0.25 µM | COc1cc(OC)c2c(=O)c(OCC(=O)Nc3nnc(-c4ccco4)o3)c(-c3ccc(OC)c(OC)c3)oc2c1 [B31, 2–(2-(3,4-dimethoxyphenyl)-5,7-dimethoxy-4-oxo-4H-chromen-3-yloxy)-N-(5-(furan-2-yl)-1,3,4-oxadiazol-2-yl)acetamide]
5 | 229 to 231 °C | 4.3 ± 0.77 µM | COc1cc(OC)c2c(=O)c(OCC(=O)Nc3nnc(-c4cccc(F)c4)o3)c(-c3ccc(OC)c(OC)c3)oc2c1 [B3, 2–(2-(3,4-dimethoxyphenyl)-5,7-dimethoxy-4-oxo-4H-chromen-3-yloxy)-N-(5–(3-fluorophenyl)-1,3,4-oxadiazol-2-yl)acetamide]
6 | 206 to 208 °C | 7.35 ± 1.01 µM | COc1cc(OC)c2c(=O)c(OCC(=O)Nc3nnc(-c4cccc(Cl)c4)o3)c(-c3cc(OC)c(OC)c(OC)c3)oc2c1 [A6, N-(5–(3-chlorophenyl)-1,3,4-oxadiazol-2-yl)-2–(5,7-dimethoxy-4-oxo-2–(3,4,5-trimethoxyphenyl)-4H-chromen-3-yloxy)acetamide]
7 | 231 to 233 °C | > 60 µM | COc1cc(OC)c2c(=O)c(OCC(=O)Nc3nnc(-c4ccc5c(c4)OCCO5)o3)c(-c3cc(OC)c(OC)c(OC)c3)oc2c1 [A29, N-(5–(2,3-dihydrobenzo[b][1, 4]dioxin-6-yl)-1,3,4-oxadiazol-2-yl)-2–(5,7-dimethoxy-4-oxo-2–(3,4,5-trimethoxyphenyl)-4H-chromen-3-yloxy)acetamide]
8 | 198 to 200 °C | 1.06 ± 0.11 µM | COc1cc(OC)cc(-c2nnc(NC(=O)COc3c(-c4cc(OC)c(OC)c(OC)c4)oc4cc(OC)cc(OC)c4c3=O)o2)c1 [A26, 2–(5,7-dimethoxy-4-oxo-2–(3,4,5-trimethoxyphenyl)-4H-chromen-3-yloxy)-N-(5–(3,5-dimethoxyphenyl)-1,3,4-oxadiazol-2-yl)acetamide]
9 | 237 to 239 °C | > 60 µM | COc1cc(OC)c2c(=O)c(OCC(=O)Nc3nnc(-c4ccccc4)o3)c(-c3ccc(OC)c(OC)c3)oc2c1 [B1, 2–(2-(3,4-dimethoxyphenyl)-5,7-dimethoxy-4-oxo-4H-chromen-3-yloxy)-N-(5-phenyl-1,3,4-oxadiazol-2-yl)acetamide]
10 | 235 to 237 °C | 15.3 ± 2.71 µM | COc1cc(OC)c2c(=O)c(OCC(=O)Nc3nnc(-c4ccccc4F)o3)c(-c3ccc(OC)c(OC)c3)oc2c1 [B4, 2–(2-(3,4-dimethoxyphenyl)-5,7-dimethoxy-4-oxo-4H-chromen-3-yloxy)-N-(5–(2-fluorophenyl)-1,3,4-oxadiazol-2-yl)acetamide]
11 | 232 to 234 °C | 4.17 ± 0.7 µM | COc1cc(OC)c2c(=O)c(OCC(=O)Nc3nnc(-c4ccc(F)c(Cl)c4)o3)c(-c3ccc(OC)c(OC)c3)oc2c1 [B24, N-(5–(3-chloro-4-fluorophenyl)-1,3,4-oxadiazol-2-yl)-2–(2-(3,4-dimethoxyphenyl)-5,7-dimethoxy-4-oxo-4H-chromen-3-yloxy)acetamide]
12 | 235 to 237 °C | 8.29 ± 1.33 µM | COc1cc(OC)c2c(=O)c(OCC(=O)Nc3nnc(-c4cccc([N+](=O)[O-])c4)o3)c(-c3ccc(OC)c(OC)c3)oc2c1 [B14, 2–(2-(3,4-dimethoxyphenyl)-5,7-dimethoxy-4-oxo-4H-chromen-3-yloxy)-N-(5–(3-nitrophenyl)-1,3,4-oxadiazol-2-yl)acetamide]
13 | 238 to 240 °C | 6.17 ± 0.99 µM | COc1cc(OC)c2c(=O)c(OCC(=O)Nc3nnc(-c4cccc5ccccc45)o3)c(-c3cc(OC)c(OC)c(OC)c3)oc2c1 [A28, 2–(5,7-dimethoxy-4-oxo-2–(3,4,5-trimethoxyphenyl)-4H-chromen-3-yloxy)-N-(5-(naphthalen-1-yl)-1,3,4-oxadiazol-2-yl)acetamide]
14 | 228 to 230 °C | 4.01 ± 0.47 µM | COc1cc(OC)c2c(=O)c(OCC(=O)Nc3nnc(-c4ccc(F)c(Cl)c4)o3)c(-c3cc(OC)c(OC)c(OC)c3)oc2c1 [A24, N-(5–(3-chloro-4-fluorophenyl)-1,3,4-oxadiazol-2-yl)-2–(5,7-dimethoxy-4-oxo-2–(3,4,5-trimethoxyphenyl)-4H-chromen-3-yloxy)acetamide]
15 | 202 to 204 °C | 5.11 ± 1.1 µM | COc1cc(OC)c2c(=O)c(OCC(=O)Nc3nnc(-c4ccccc4OC(F)(F)F)o3)c(-c3cc(OC)c(OC)c(OC)c3)oc2c1 [A21, 2–(5,7-dimethoxy-4-oxo-2–(3,4,5-trimethoxyphenyl)-4H-chromen-3-yloxy)-N-(5–(2-(trifluoromethoxy)phenyl)-1,3,4-oxadiazol-2-yl)acetamide]
16 | 222 to 224 °C | 21.1 ± 2.28 µM | COc1cc(OC)c2c(=O)c(OCC(=O)Nc3nnc(-c4ccccc4)o3)c(-c3cc(OC)c(OC)c(OC)c3)oc2c1 [A1, 2–(5,7-dimethoxy-4-oxo-2–(3,4,5-trimethoxyphenyl)-4H-chromen-3-yloxy)-N-(5-phenyl-1,3,4-oxadiazol-2-yl)acetamide]
17 | 210 to 212 °C | 1.29 ± 0.2 µM | COc1cc(OC)c2c(=O)c(OCC(=O)Nc3nnc(-c4ccc(C(F)(F)F)cc4)o3)c(-c3ccc(OC)c(OC)c3)oc2c1 [B16, 2–(2-(3,4-dimethoxyphenyl)-5,7-dimethoxy-4-oxo-4H-chromen-3-yloxy)-N-(5–(4-(trifluoromethyl)phenyl)-1,3,4-oxadiazol-2-yl)acetamide]
18 | 230 to 232 °C | 1.19 ± 0.18 µM | COc1cc(OC)c2c(=O)c(OCC(=O)Nc3nnc(-c4cccc5ccccc45)o3)c(-c3ccc(OC)c(OC)c3)oc2c1 [B28, 2–(2-(3,4-dimethoxyphenyl)-5,7-dimethoxy-4-oxo-4H-chromen-3-yloxy)-N-(5-(naphthalen-1-yl)-1,3,4-oxadiazol-2-yl)acetamide]
19 | 213 to 215 °C | 4.22 ± 0.62 µM | COc1cc(OC)c2c(=O)c(OCC(=O)Nc3nnc(-c4ccc(Cl)cc4)o3)c(-c3ccc(OC)c(OC)c3)oc2c1 [B5, N-(5–(4-chlorophenyl)-1,3,4-oxadiazol-2-yl)-2–(2-(3,4-dimethoxyphenyl)-5,7-dimethoxy-4-oxo-4H-chromen-3-yloxy)acetamide]
20 | 234 to 236 °C | 8.09 ± 2.25 µM | COc1cc(OC)c2c(=O)c(OCC(=O)Nc3nnc(-c4ccccc4C)o3)c(-c3ccc(OC)c(OC)c3)oc2c1 [B13, 2–(2-(3,4-dimethoxyphenyl)-5,7-dimethoxy-4-oxo-4H-chromen-3-yloxy)-N-(5-o-tolyl-1,3,4-oxadiazol-2-yl)acetamide]
21 | 195 to 197 °C | 27.6 ± 3.11 µM | COc1cc(OC)c2c(=O)c(OCC(=O)Nc3nnc(-c4cccc(C(F)(F)F)c4)o3)c(-c3ccc(OC)c(OC)c3)oc2c1 [B17, 2–(2-(3,4-dimethoxyphenyl)-5,7-dimethoxy-4-oxo-4H-chromen-3-yloxy)-N-(5–(3-(trifluoromethyl)phenyl)-1,3,4-oxadiazol-2-yl)acetamide]
22 | 239 to 241 °C | 9.11 ± 1.88 µM | COc1ccc(-c2nnc(NC(=O)COc3c(-c4cc(OC)c(OC)c(OC)c4)oc4cc(OC)cc(OC)c4c3=O)o2)cc1 [A22, 2–(5,7-dimethoxy-4-oxo-2–(3,4,5-trimethoxyphenyl)-4H-chromen-3-yloxy)-N-(5–(4-methoxyphenyl)-1,3,4-oxadiazol-2-yl)acetamide]
23 | 225 to 227 °C | 2.79 ± 0.55 µM | COc1cc(OC)c2c(=O)c(OCC(=O)Nc3nnc(-c4ccccc4C(F)(F)F)o3)c(-c3ccc(OC)c(OC)c3)oc2c1 [B18, 2–(2-(3,4-dimethoxyphenyl)-5,7-dimethoxy-4-oxo-4H-chromen-3-yloxy)-N-(5–(2-(trifluoromethyl)phenyl)-1,3,4-oxadiazol-2-yl)acetamide]
24 | 205 to 207 °C | 2.44 ± 0.42 µM | COc1cccc(-c2nnc(NC(=O)COc3c(-c4ccc(OC)c(OC)c4)oc4cc(OC)cc(OC)c4c3=O)o2)c1 [B23, 2–(2-(3,4-dimethoxyphenyl)-5,7-dimethoxy-4-oxo-4H-chromen-3-yloxy)-N-(5–(3-methoxyphenyl)-1,3,4-oxadiazol-2-yl)acetamide]
25 | 222 to 224 °C | > 60 µM | COc1cc(OC)c2c(=O)c(OCC(=O)Nc3nnc(-c4ccc(Cl)c(Cl)c4)o3)c(-c3cc(OC)c(OC)c(OC)c3)oc2c1 [A25, N-(5–(3,4-dichlorophenyl)-1,3,4-oxadiazol-2-yl)-2–(5,7-dimethoxy-4-oxo-2–(3,4,5-trimethoxyphenyl)-4H-chromen-3-yloxy)acetamide]
26 | 213 to 215 °C | 12.1 ± 2.01 µM | COc1cc(OC)c2c(=O)c(OCC(=O)Nc3nnc(-c4ccccc4F)o3)c(-c3cc(OC)c(OC)c(OC)c3)oc2c1 [A4, 2–(5,7-dimethoxy-4-oxo-2–(3,4,5-trimethoxyphenyl)-4H-chromen-3-yloxy)-N-(5–(2-fluorophenyl)-1,3,4-oxadiazol-2-yl)acetamide]
